From ChEMBL document CHEMBL4419163, “Assays for identifying compounds that modulate bitter taste” (2014)

Legend:
Assay type in all cases: functional, cell-based
[1] = target: T1, Taste receptor type 2 member 16 (Homo sapiens) (UniProt Q9NYV7); assay: Agonist activity at human TAS2R16 expressed in HEK293T cells co-expressing Galpha15 assessed as increase in intracellular calcium level at 20 mM by Calcium-3 dye based fluorescence assay relative to control
T1 sequence (whole entry): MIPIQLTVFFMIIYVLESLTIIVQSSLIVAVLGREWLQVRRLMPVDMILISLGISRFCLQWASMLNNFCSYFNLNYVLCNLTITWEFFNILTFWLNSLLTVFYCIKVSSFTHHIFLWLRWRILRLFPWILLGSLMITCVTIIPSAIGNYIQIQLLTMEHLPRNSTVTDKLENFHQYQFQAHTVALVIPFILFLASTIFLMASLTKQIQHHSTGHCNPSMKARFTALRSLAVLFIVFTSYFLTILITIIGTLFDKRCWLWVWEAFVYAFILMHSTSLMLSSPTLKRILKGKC

[2] = target: T2, Taste receptor type 2 member 13 (Homo sapiens) (UniProt Q9NYV9); assay: Agonist activity at human TAS2R13 expressed in HEK293T cells co-expressing Galpha15 assessed as increase in intracellular calcium level at 20 mM by Calcium-3 dye based fluorescence assay relative to control
T2 sequence (whole entry): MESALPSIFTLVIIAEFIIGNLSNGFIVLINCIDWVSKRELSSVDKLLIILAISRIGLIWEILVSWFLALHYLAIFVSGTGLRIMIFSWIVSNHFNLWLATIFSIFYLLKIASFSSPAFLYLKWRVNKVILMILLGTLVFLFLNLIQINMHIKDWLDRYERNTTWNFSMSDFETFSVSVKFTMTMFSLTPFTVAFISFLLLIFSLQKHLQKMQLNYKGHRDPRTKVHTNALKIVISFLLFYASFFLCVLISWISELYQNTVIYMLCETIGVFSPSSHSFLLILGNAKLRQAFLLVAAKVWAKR

[3] = target: T3, Taste receptor type 2 member 60 (Homo sapiens) (UniProt P59551); assay: Agonist activity at human TAS2R60 expressed in HEK293T cells co-expressing Galpha15 assessed as increase in intracellular calcium level at 20 mM by Calcium-3 dye based fluorescence assay relative to control
T3 sequence (whole entry): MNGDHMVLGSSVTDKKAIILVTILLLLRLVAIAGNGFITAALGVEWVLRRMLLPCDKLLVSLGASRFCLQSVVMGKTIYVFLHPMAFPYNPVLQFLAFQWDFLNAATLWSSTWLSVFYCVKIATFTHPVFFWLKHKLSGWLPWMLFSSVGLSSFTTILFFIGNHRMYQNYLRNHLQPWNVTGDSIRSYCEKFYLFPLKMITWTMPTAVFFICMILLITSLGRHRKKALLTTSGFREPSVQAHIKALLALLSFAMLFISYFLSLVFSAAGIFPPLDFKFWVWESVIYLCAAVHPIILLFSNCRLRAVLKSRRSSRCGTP

[4] = target: T4, Taste receptor type 2 member 31 (Homo sapiens) (UniProt P59538); assay: Agonist activity at human TAS2R44 expressed in HEK293T cells co-expressing Galpha15 assessed as increase in intracellular calcium level at 20 mM by Calcium-3 dye based fluorescence assay relative to control
T4 sequence (whole entry): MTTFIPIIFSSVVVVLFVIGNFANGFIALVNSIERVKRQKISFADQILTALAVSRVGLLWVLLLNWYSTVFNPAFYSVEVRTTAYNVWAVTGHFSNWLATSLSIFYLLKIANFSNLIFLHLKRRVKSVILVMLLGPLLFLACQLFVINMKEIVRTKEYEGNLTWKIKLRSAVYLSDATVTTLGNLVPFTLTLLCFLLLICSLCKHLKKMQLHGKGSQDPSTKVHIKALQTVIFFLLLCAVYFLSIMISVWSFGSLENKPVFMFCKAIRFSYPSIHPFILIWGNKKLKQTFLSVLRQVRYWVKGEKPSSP

[5] = target: T5, Taste receptor type 2 member 42 (Homo sapiens) (UniProt Q7RTR8); assay: Agonist activity at human TAS2R55 expressed in HEK293T cells co-expressing Galpha15 assessed as increase in intracellular calcium level at 20 mM by Calcium-3 dye based fluorescence assay relative to control
T5 sequence (whole entry): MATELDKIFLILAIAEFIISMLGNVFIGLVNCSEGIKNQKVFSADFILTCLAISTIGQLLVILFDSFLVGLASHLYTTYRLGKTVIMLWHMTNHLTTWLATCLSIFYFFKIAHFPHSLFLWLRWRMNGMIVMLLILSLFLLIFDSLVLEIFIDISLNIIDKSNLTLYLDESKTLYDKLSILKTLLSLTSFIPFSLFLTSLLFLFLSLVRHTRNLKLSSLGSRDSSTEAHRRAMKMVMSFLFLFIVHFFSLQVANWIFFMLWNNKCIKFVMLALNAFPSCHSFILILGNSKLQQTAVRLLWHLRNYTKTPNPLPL

[6] = target: T6, Taste receptor type 2 member 38 (Homo sapiens) (UniProt P59533); assay: Agonist activity at human TAS2R38 expressed in HEK293T cells co-expressing Galpha15 assessed as increase in intracellular calcium level at 20 mM by Calcium-3 dye based fluorescence assay relative to control
T6 sequence (whole entry): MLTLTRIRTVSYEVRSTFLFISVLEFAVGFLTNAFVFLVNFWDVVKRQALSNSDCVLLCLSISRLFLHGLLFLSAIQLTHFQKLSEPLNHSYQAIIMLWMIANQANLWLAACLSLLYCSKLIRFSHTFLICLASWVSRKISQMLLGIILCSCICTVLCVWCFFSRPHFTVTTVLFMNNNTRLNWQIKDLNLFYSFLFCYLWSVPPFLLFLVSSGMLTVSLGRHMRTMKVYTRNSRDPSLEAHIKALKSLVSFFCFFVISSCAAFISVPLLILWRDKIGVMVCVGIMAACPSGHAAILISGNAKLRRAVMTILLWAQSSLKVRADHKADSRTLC

[7] = target: T7, Taste receptor type 2 member 20 (Homo sapiens) (UniProt P59543); assay: Agonist activity at human TAS2R49 expressed in HEK293T cells co-expressing Galpha15 assessed as increase in intracellular calcium level at 20 mM by Calcium-3 dye based fluorescence assay relative to control
T7 sequence (whole entry): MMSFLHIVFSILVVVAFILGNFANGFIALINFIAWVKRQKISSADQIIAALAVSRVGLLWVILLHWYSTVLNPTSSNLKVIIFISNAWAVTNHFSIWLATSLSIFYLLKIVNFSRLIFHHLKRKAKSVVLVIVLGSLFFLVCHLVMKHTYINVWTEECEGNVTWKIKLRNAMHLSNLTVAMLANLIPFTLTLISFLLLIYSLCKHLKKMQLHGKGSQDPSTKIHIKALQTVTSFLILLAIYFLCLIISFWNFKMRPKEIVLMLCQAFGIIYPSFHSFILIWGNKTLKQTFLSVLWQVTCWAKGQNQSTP

## CC1=CC(=O)NS(=O)(=O)O1
[1]
  Activity: > 40%
[2]
  Activity: > 40%
[3]
  Activity: < 40%
[4]
  Activity: > 40%
[5]
  Activity: < 40%
[6]
  Activity: < 40%
[7]
  Activity: < 40%

## [Cl-].[K+] [POTASSIUM CHLORIDE]
[1]
  Activity: < 40%
[2]
  Activity: > 40%
[3]
  Activity: > 40%
[4]
  Activity: > 40%
[5]
  Activity: < 40%
[6]
  Activity: < 40%
[7]
  Activity: < 40%

## CC(O)C(=O)[O-].[K+] (stereo unspecified)
[1]
  Activity: < 40%
[2]
  Activity: > 40%
[3]
  Activity: > 40%
[4]
  Activity: > 40%
[5]
  Activity: < 40%
[6]
  Activity: < 40%
[7]
  Activity: < 40%
